# Laboratory results reported in ChEMBL document CHEMBL1150069, “Ethnobotanical drug discovery based on medicine men's trials in the African savanna: screening of east African plants for antimicrobial activity II” (1993).
# How the values were obtained:
# [1] = tested on: Schizosaccharomyces pombe; assay: Antimicrobial activity against Schizosaccharomyces pombe IFO 0342 after 2 days by twofold serial broth dilution method; type: functional; conditions: IFO 0342, 48 h
# Micrococcus luteus = assay: Antimicrobial activity against Micrococcus luteus IFO 3333 after 2 days by twofold serial broth dilution method; type: functional; conditions: IFO 3333, 48 h
# Proteus vulgaris = assay: Antimicrobial activity against Proteus vulgaris IAM 12003 after 2 days by twofold serial broth dilution method; type: functional; conditions: IAM 12003, 48 h
# Escherichia coli = assay: Antimicrobial activity against Escherichia coli IFO 3545 after 2 days by twofold serial broth dilution method; type: functional; conditions: IFO 3545, 48 h
# Aspergillus niger = assay: Antimicrobial activity against Aspergillus niger ATCC 6275 after 2 days by twofold serial broth dilution method; type: functional; conditions: ATCC 6275, 48 h
# Sclerotinia = assay: Antimicrobial activity against Sclerotinia libertiana Ss after 2 days by twofold serial broth dilution method; conditions: 48 h
# [2] = tested on: Rhizopus microsporus var. chinensis; assay: Antimicrobial activity against Rhizopus chinensis IFO 4772 after 2 days by twofold serial broth dilution method; type: functional; conditions: IFO 4772, 48 h
# Penicillium crustosum = assay: Antimicrobial activity against Penicillium crustosum Thom after 2 days by twofold serial broth dilution method; type: functional; conditions: 48 h
# Saccharomyces cerevisiae = assay: Antimicrobial activity against Saccharomyces cerevisiae IFO 0203 after 2 days by twofold serial broth dilution method; type: functional; conditions: IFO 0203, 48 h
# Wickerhamomyces anomalus = assay: Antimicrobial activity against Hansenula anomala IFO 0136 after 2 days by twofold serial broth dilution method; type: functional; conditions: IFO 0136, 48 h
# Cyberlindnera jadinii = assay: Antimicrobial activity against Candida utilis ATCC 42402 after 2 days by twofold serial broth dilution method; type: functional; conditions: Williopsis jadinii, ATCC 42402, 48 h
# Staphylococcus aureus = assay: Antimicrobial activity against Staphylococcus aureus NCTC 8530 after 2 days by twofold serial broth dilution method; type: functional; conditions: NCTC 8530, 48 h
# Bacillus subtilis = assay: Antimicrobial activity against Bacillus subtilis ATCC 6633 after 2 days by twofold serial broth dilution method; type: functional; conditions: ATCC 6633, 48 h
# Mucor mucedo = assay: Antimicrobial activity against Mucor mucedo IFO 7684 after 2 days by twofold serial broth dilution method; type: functional; conditions: IFO 7684, 48 h
# Pseudomonas aeruginosa = assay: Antimicrobial activity against Pseudomonas aeruginosa IAM 1007 after 2 days by twofold serial broth dilution method; type: functional; conditions: IAM 1007, 48 h
MIC [1],MIC (Micrococcus luteus),MIC (Proteus vulgaris),MIC (Escherichia coli),MIC (Aspergillus niger),MIC (Sclerotinia),MIC [2],MIC (Penicillium crustosum),MIC (Saccharomyces cerevisiae),MIC (Wickerhamomyces anomalus),MIC (Cyberlindnera jadinii),MIC (Staphylococcus aureus),MIC (Bacillus subtilis),MIC (Mucor mucedo),MIC (Pseudomonas aeruginosa),SMILES
25 µg/mL,> 100 µg/mL,> 100 µg/mL,> 100 µg/mL,50 µg/mL,3.13 µg/mL,100 µg/mL,50 µg/mL,1.56 µg/mL,25 µg/mL,3.13 µg/mL,> 100 µg/mL,> 100 µg/mL,25 µg/mL,> 100 µg/mL,C=C1[C@@H](C)CC[C@@]2(C)[C@H]1CC=C(C=O)[C@]2(O)C=O
,,,> 100 µg/mL,,,,> 100 µg/mL,100 µg/mL,,100 µg/mL,50 µg/mL,50 µg/mL,50 µg/mL,> 100 µg/mL,CC(C)=CCc1cc([C@@H]2CC(=O)c3ccc(O)cc3O2)ccc1O [ABYSSINONE II]
,,,> 100 µg/mL,,,,> 100 µg/mL,> 100 µg/mL,,> 100 µg/mL,25 µg/mL,12.5 µg/mL,> 100 µg/mL,> 100 µg/mL,CC(C)=CCc1cc([C@@H]2CC(=O)c3ccc(O)cc3O2)cc(CC=C(C)C)c1O [ABYSSINONE IV]
,,,> 100 µg/mL,,,,> 100 µg/mL,> 100 µg/mL,,> 100 µg/mL,> 100 µg/mL,> 100 µg/mL,> 100 µg/mL,> 100 µg/mL,CC1(C)C=Cc2cc([C@@H]3CC(=O)c4ccc(O)cc4O3)ccc2O1 [ABYSSINONE I]
,,,> 100 µg/mL,,,,> 100 µg/mL,> 100 µg/mL,,> 100 µg/mL,> 100 µg/mL,> 100 µg/mL,> 100 µg/mL,> 100 µg/mL,CC(C)=CCc1cc(/C=C/C(=O)c2ccc(O)cc2O)cc(CC=C(C)C)c1O [ABYSSINONE VI]
,,,> 100 µg/mL,,,,> 100 µg/mL,> 100 µg/mL,,> 100 µg/mL,50 µg/mL,25 µg/mL,> 100 µg/mL,> 100 µg/mL,CC(C)=CCc1cc([C@@H]2CC(=O)c3c(O)cc(O)cc3O2)cc(CC=C(C)C)c1O [ABYSSINONE V]
,> 100 µg/mL,> 100 µg/mL,> 100 µg/mL,> 100 µg/mL,> 100 µg/mL,> 100 µg/mL,> 100 µg/mL,> 100 µg/mL,,> 100 µg/mL,> 100 µg/mL,> 100 µg/mL,> 100 µg/mL,> 100 µg/mL,CC(=O)O[C@@H]1C=C(C=O)[C@](O)(C=O)[C@@]2(C)CCCC(C)(C)[C@H]12 [CINNAMODIAL]
> 100 µg/mL,> 100 µg/mL,> 100 µg/mL,> 100 µg/mL,> 100 µg/mL,> 100 µg/mL,> 100 µg/mL,> 100 µg/mL,> 100 µg/mL,> 100 µg/mL,> 100 µg/mL,> 100 µg/mL,> 100 µg/mL,> 100 µg/mL,> 100 µg/mL,CC1(C)CCC[C@]2(C)[C@H](C=O)C(C=O)=CC[C@@H]12 [EPIPOLYGODIAL]
,,,> 100 µg/mL,,,,> 100 µg/mL,> 100 µg/mL,,> 100 µg/mL,3.13 µg/mL,3.13 µg/mL,> 100 µg/mL,> 100 µg/mL,CC(C)=CCc1cc2c(cc1O)OC[C@H]1c3ccc(O)c(CC=C(C)C)c3O[C@@H]21 [ERYBRAEDIN C]
,,,> 100 µg/mL,,,,> 100 µg/mL,50 µg/mL,,50 µg/mL,12.5 µg/mL,6.25 µg/mL,25 µg/mL,> 100 µg/mL,COc1ccc2c(c1CC=C(C)C)O[C@H]1c3ccc(O)cc3OC[C@@]21O [ERYTHRABYSSIN I]
> 100 µg/mL,> 100 µg/mL,> 100 µg/mL,> 100 µg/mL,> 100 µg/mL,100 µg/mL,> 100 µg/mL,> 100 µg/mL,> 100 µg/mL,> 100 µg/mL,> 100 µg/mL,> 100 µg/mL,> 100 µg/mL,> 100 µg/mL,> 100 µg/mL,CC1(C)CCC[C@@]2(C)[C@H]1[C@@H](O)C=C(C=O)[C@]2(O)C=O [MUKAADIAL]
,,,> 100 µg/mL,,,,> 100 µg/mL,25 µg/mL,,50 µg/mL,12.5 µg/mL,6.25 µg/mL,12.5 µg/mL,> 100 µg/mL,CC1(C)C=Cc2c(ccc3c2O[C@H]2c4ccc(O)cc4OC[C@@H]32)O1 [PHASEOLIN]
,,,> 100 µg/mL,,,,> 100 µg/mL,> 100 µg/mL,,> 100 µg/mL,50 µg/mL,25 µg/mL,100 µg/mL,> 100 µg/mL,CC(C)=CCc1c(O)ccc2c1O[C@H]1c3ccc(O)cc3OC[C@@H]21 [PHASEOLLIDIN]
,,,> 100 µg/mL,,,,> 100 µg/mL,100 µg/mL,,100 µg/mL,25 µg/mL,25 µg/mL,50 µg/mL,> 100 µg/mL,CC(C)=CCc1cc(C2CC(=O)c3c(O)cc(O)cc3O2)cc(CC=C(C)C)c1O (stereo not drawn) [PHASEOLLIN]
6.25 µg/mL,> 100 µg/mL,> 100 µg/mL,> 100 µg/mL,25 µg/mL,1.56 µg/mL,12.5 µg/mL,25 µg/mL,0.78 µg/mL,1.56 µg/mL,1.56 µg/mL,> 100 µg/mL,> 100 µg/mL,6.25 µg/mL,> 100 µg/mL,CC1(C)CCC[C@]2(C)[C@@H](C=O)C(C=O)=CC[C@@H]12 [POLYGODIAL]
12.5 µg/mL,> 100 µg/mL,> 100 µg/mL,> 100 µg/mL,50 µg/mL,3.13 µg/mL,100 µg/mL,50 µg/mL,3.13 µg/mL,12.5 µg/mL,3.13 µg/mL,> 100 µg/mL,> 100 µg/mL,25 µg/mL,> 100 µg/mL,CC1(C)CCC[C@@]2(C)[C@H]1CC=C(C=O)[C@]2(O)C=O [WARBURGANAL]
